In US20260207563A1, “UREA COMPOUNDS AS ACTIVATORS OF POTASSIUM CHANNELS KV7.2/7.3 USEFUL IN THE TREATMENT OF CNS AND PNS DISORDERS” (ANGELINI PHARMA S.P.A., priority 2022, published 2026):

Legend:
Assay type in all cases: cell-based
[1] = molecular target: T1, heteromeric KV7.2/KV7.3 channels (KCNQ2, KCNQ3) (Homo sapiens, UniProt O43525+O43526); assay: Automated patch-clamp (Sophion Qube 384) potency assay against KV7.2/KV7.3 channels; conditions: CHO-K1/Kv7.2/Kv7.3 cells; for EC50: EC50 from concentration-response of shift in Vhalf, 10 concentrations up to 30 μM, read-out: Kv7.2/7.3 EC50; for Kv7.2/7.3 ΔV1/2: maximal shift in the Vhalf from the top of the curve
T1 construct: expressed in transfected cells; host or cells: CHO-K1
From the text: Assessment of In Vitro Potency Against KV7.2/KV7.3 Channels
An automated patch-clamp assay on the Sophion Qube 384 was developed for potency testing to identify small molecule activators of heteromeric KV7.2/KV7.3 channels (KCNQ2, Uniprot ID 043526; KCNQ3, Uniprot 043525).
The cell line used was a stably transfected CHO-K1 cell line with constitutive KV7.2/KV7.3 expression.
CHO-K1/Kv7.2/Kv7.3 cells were maintained in the following culture media: • DMEM/F-12 with GlutaMAX™ (Gibco 31331-028), • 10% Fetal clone 2 serum (Perbio Science SH30066.03), • 1 mg/ml Geneticin™ selective antibiotic (G418, Invitrogen 1013027), and • 5 μg/ml BlasticidinS HCl (Invivogen Ant-bl-5).
On the day of the experiment, cells were resuspended in serum free media, counted and diluted to a final concentration of 3.5×10^6 cells per ml of media.
Cells were then placed onto the Sophion Qube 384 and rested for a minimum of 1 hour.
The following solutions were used for recording: • extracellular solution (in mM): 145 NaCl, 4 KCl, 1 MgCl2, 2 CaCl2), 10 HEPES, 10 glucose, pH 7.4, 315-320 mOsm. • intracellular solution (in mM): 120 KCl, 5.74 CaCl2), 1.75 MgCl2, 10 EGTA, 10 HEPES, 5 Na2ATP, pH 7.2, adjusted to 315 mOsm with sucrose.
After establishing the whole-cell configuration, cells were held at −80 mV throughout the experiment. A current-voltage (I-V) protocol stepping from −100 to +20 mV for 1 second was applied to measure Kv7.2/Kv7.3 currents, each step was followed by a 200 ms pulse to 0 mV to measure the tail currents. From the I-V protocol a Boltzmann fit was applied to generate activation curves. Data were sampled at 25 kHz and filtered at 5 kHz (Bessel). Data were produced using multihole QChips. The I-V protocol was applied several times to establish the response in control conditions (typically 0.3% DMSO) and in the presence of the test compound.
Data were reviewed in Sophion Analyser version 6.5.2 (Sophion Bioscience) for recording quality and filters were applied to remove any failed wells. Leak subtraction was applied to all recordings. Data filters for multihole QChips were typically: seal resistance>4 MΩ, capacitance >20 pF, baseline VHalf between 0 to −40 mV, baseline holding current between −2 to 2 nA, baseline steady state current at 20 mV >4 nA unless otherwise stated.
(§1) Analysis of Data for Assessment of Potency
(§2) 10 concentrations of test compounds were applied to individual wells in quadruplicate to assess potency as a 1 in 3 dilution series from the maximal concentration of 30 μM. The average shift in the voltage for half activation (Vhalf) for each concentration was used to generate concentration-response curves fitted with a 4-parameter logistic model to estimate the EC50 from the point of inflection of the curve and the maximal shift in the Vhalf from the top of the curve.
(§3) The lower the EC50 value, the higher the potency of the analyzed compound. The selectivity criteria is assigned on the basis of the maximal shift in the Vhalf at 30 μM. […] In Table 3, ND means that selectivity was not determined.

[2] = molecular target: T2, homomeric KV7.4 channel (KCNQ4) (Homo sapiens, UniProt P56696); assay: Automated patch-clamp (Qube) counter-screening assay against KV7.4 channel; conditions: CHO-K1 cells expressing KV7.4; class by maximal shift in the Vhalf at 30 μM
T2 construct: host or cells: CHO-K1
From the text: Assessment of In Vitro Potency Against KV7.4 Channels
A counter-screening assay was also developed on the Qube against the homomeric KV7.4 channel (KCNQ4, Uniprot ID P56696). The cell line used was a stably transfected CHO-K1 with constitutive KV7.4 expression supplied by Charles River Laboratories.
CHO-K1 cells stably expressing KV7.4 channels were maintained in the following culture media: • Hams F-12 with GlutaMAX™ (Life Technologies 31765027), • 10% Fetal clone 2 serum (Perbio Science SH30066.03), and • 250 μg/ml Geneticin™ selective antibiotic (G418, Invitrogen 1013-027).
(§4) Cell maintenance, preparation, recording conditions and voltage protocols were all identical to those above.
as §1, §2, §3

[3] = molecular target: T3, heteromeric KV7.3/KV7.5 channel (KCNQ3, KCNQ5) (Homo sapiens, UniProt O43525+Q9NR82); assay: Automated patch-clamp counter-screening against KV7.3/KV7.5 channel; conditions: HEK293 cells expressing Kv7.3/KV7.5; class by maximal shift in the Vhalf at 30 μM
T3 construct: host or cells: HEK293
Procedure: Assessment of in vitro potency against KV7.3/KV7.5 channels
Counter-screening was also carried out against the heteromeric KV7.3/KV7.5 channel (KCNQ3, Uniprot ID 043525; KCNQ5, Uniprot ID Q9NR82). The cell line used was a stably transfected HEK293 cell line with constitutive Kv7.3 expression and tetracycline inducible KV7.5 expression supplied by Charles River Laboratories.
Cells were maintained in the following culture media: • DMEM/F-12 with GlutaMAX™ (Life Technologies 31331-028), • 10% Tet Systems FCS (Clonetech 631106), • 500 μg/ml Geneticin™ selective antibiotic (G418, Invitrogen 1013-027), • 5 μg/ml Blasticidin S HCl (InvivoGen ant-bl-5), and • 100 μg/ml Zeocin (InvivoGen: ant-zn-5).
as §4, §1, §2, §3

Structure (SMILES): O=C(NCc1ccnc(OCC(F)(F)F)c1)NC1CCc2ccc(F)cc21 (racemic) [Compound 81, (±)-1-(6-Fluoro-2,3-dihydro-1H-inden-1-yl)-3-((2-(2,2,2-trifluoroethoxy)pyridin-4-yl)methyl)urea]
- EC50 [1]: 310 nM
- Kv7.2/7.3 ΔV1/2 [1]: 14.75 mV
- Kv7.4 selectivity criteria [2]: A (Selective compounds showed Kv7.4 and/or Kv7.3/7.5 ΔV1/2 equal to or lower than 15 mV (letter A in table 3))
- Kv7.3/7.5 selectivity criteria [3]: A (Selective compounds showed Kv7.4 and/or Kv7.3/7.5 ΔV1/2 equal to or lower than 15 mV (letter A in table 3))

Structure (SMILES): O=C(NCc1ccnc(OCc2ccccc2)c1)Nc1cccc(F)c1 [Compound 1, 1-((2-(Benzyloxy)pyridin-4-yl)methyl)-3-(3-fluorophenyl)urea]
- EC50 [1]: 600 nM
- Kv7.2/7.3 ΔV1/2 [1]: 30.51 mV
- Kv7.4 selectivity criteria [2]: B (Non-selective compounds showed Kv7.4 and/or Kv7.3/7.5 ΔV1/2 higher than 15 mV (letter B in table 3))
- Kv7.3/7.5 selectivity criteria [3]: B (Non-selective compounds showed Kv7.4 and/or Kv7.3/7.5 ΔV1/2 higher than 15 mV (letter B in table 3))

Structure (SMILES): O=C(NCc1cccc(F)c1)NCc1ccnc(OCc2ccccc2)c1 [Compound 2, 1-((2-(Benzyloxy)pyridin-4-yl)methyl)-3-(3-fluorobenzyl)urea]
- EC50 [1]: 966 nM
- Kv7.2/7.3 ΔV1/2 [1]: 16.51 mV
- Kv7.4 selectivity criteria [2]: A (Selective compounds showed Kv7.4 and/or Kv7.3/7.5 ΔV1/2 equal to or lower than 15 mV (letter A in table 3))
- Kv7.3/7.5 selectivity criteria [3]: A (Selective compounds showed Kv7.4 and/or Kv7.3/7.5 ΔV1/2 equal to or lower than 15 mV (letter A in table 3))

Structure (SMILES): O=C(NCCC1(C(F)(F)F)CC1)NCc1ccnc(OCc2ccccc2)c1 [Compound 3, 1-((2-(Benzyloxy)pyridin-4-yl)methyl)-3-(2-(1-(trifluoromethyl)cyclopropyl)ethyl)urea]
- EC50 [1]: 472 nM
- Kv7.2/7.3 ΔV1/2 [1]: 25.42 mV
- Kv7.4 selectivity criteria [2]: A (Selective compounds showed Kv7.4 and/or Kv7.3/7.5 ΔV1/2 equal to or lower than 15 mV (letter A in table 3))
- Kv7.3/7.5 selectivity criteria [3]: A (Selective compounds showed Kv7.4 and/or Kv7.3/7.5 ΔV1/2 equal to or lower than 15 mV (letter A in table 3))

Structure (SMILES): CC(C)(C)[C@H](O)CNC(=O)NCc1ccnc(OCc2ccccc2)c1 [Compound 4, (S)-1-((2-(Benzyloxy)pyridin-4-yl)methyl)-3-(2-hydroxy-3,3-dimethylbutyl)urea]
- EC50 [1]: 1700 nM
- Kv7.2/7.3 ΔV1/2 [1]: 27.28 mV
- Kv7.4 selectivity criteria [2]: A (Selective compounds showed Kv7.4 and/or Kv7.3/7.5 ΔV1/2 equal to or lower than 15 mV (letter A in table 3))
- Kv7.3/7.5 selectivity criteria [3]: B (Non-selective compounds showed Kv7.4 and/or Kv7.3/7.5 ΔV1/2 higher than 15 mV (letter B in table 3))

Structure (SMILES): CN(Cc1ccnc(OCC(F)(F)F)c1)C(=O)NCCC1(C(F)(F)F)CC1 [Compound 7, 1-Methyl-1-((2-(2,2,2-trifluoroethoxy)pyridin-4-yl)methyl)-3-(2-(1-(trifluoromethyl)cyclopropyl)ethyl)urea]
- EC50 [1]: 5130 nM
- Kv7.2/7.3 ΔV1/2 [1]: 22.31 mV
- Kv7.4 selectivity criteria [2]: A (Selective compounds showed Kv7.4 and/or Kv7.3/7.5 ΔV1/2 equal to or lower than 15 mV (letter A in table 3))
- Kv7.3/7.5 selectivity criteria [3]: A (Selective compounds showed Kv7.4 and/or Kv7.3/7.5 ΔV1/2 equal to or lower than 15 mV (letter A in table 3))

Structure (SMILES): O=C(NCCC1(C(F)(F)F)CC1)NCc1cc(OCc2ccccc2)ncn1 [Compound 11, 1-((6-(Benzyloxy)pyrimidin-4-yl)methyl)-3-(2-(1-(trifluoromethyl)cyclopropyl)ethyl)urea]
- EC50 [1]: 1830 nM
- Kv7.2/7.3 ΔV1/2 [1]: 27.09 mV
- Kv7.4 selectivity criteria [2]: A (Selective compounds showed Kv7.4 and/or Kv7.3/7.5 ΔV1/2 equal to or lower than 15 mV (letter A in table 3))
- Kv7.3/7.5 selectivity criteria [3]: B (Non-selective compounds showed Kv7.4 and/or Kv7.3/7.5 ΔV1/2 higher than 15 mV (letter B in table 3))

Structure (SMILES): O=C(NCCC1(C(F)(F)F)CC1)NCc1ccnc(OCC2CCOCC2)c1 [Compound 12, 1-((2-((Tetrahydro-2H-pyran-4-yl)methoxy)pyridin-4-yl)methyl)-3-(2-(1-(trifluoromethyl)cyclopropyl)ethyl)urea]
- EC50 [1]: 7650 nM
- Kv7.2/7.3 ΔV1/2 [1]: 13.2 mV
- Kv7.4 selectivity criteria [2]: A (Selective compounds showed Kv7.4 and/or Kv7.3/7.5 ΔV1/2 equal to or lower than 15 mV (letter A in table 3))
- Kv7.3/7.5 selectivity criteria [3]: A (Selective compounds showed Kv7.4 and/or Kv7.3/7.5 ΔV1/2 equal to or lower than 15 mV (letter A in table 3))

Structure (SMILES): O=C(NCCC1(C(F)(F)F)CC1)NCc1ccnc(OCc2ncco2)c1 [Compound 13, 1-((2-(Oxazol-2-ylmethoxy)pyridin-4-yl)methyl)-3-(2-(1-(trifluoromethyl)cyclopropyl)ethyl)urea]
- EC50 [1]: 4450 nM
- Kv7.2/7.3 ΔV1/2 [1]: 22.29 mV
- Kv7.4 selectivity criteria [2]: A (Selective compounds showed Kv7.4 and/or Kv7.3/7.5 ΔV1/2 equal to or lower than 15 mV (letter A in table 3))
- Kv7.3/7.5 selectivity criteria [3]: A (Selective compounds showed Kv7.4 and/or Kv7.3/7.5 ΔV1/2 equal to or lower than 15 mV (letter A in table 3))

Structure (SMILES): O=C(NCCC1(C(F)(F)F)CC1)NCc1ccnc(OCc2ccc(F)cc2)c1 [Compound 14, 1-((2-((4-Fluorobenzyl)oxy)pyridin-4-yl)methyl)-3-(2-(1-(trifluoromethyl)cyclopropyl)ethyl)urea]
- EC50 [1]: 392 nM
- Kv7.2/7.3 ΔV1/2 [1]: 26.52 mV
- Kv7.4 selectivity criteria [2]: B (Non-selective compounds showed Kv7.4 and/or Kv7.3/7.5 ΔV1/2 higher than 15 mV (letter B in table 3))
- Kv7.3/7.5 selectivity criteria [3]: A (Selective compounds showed Kv7.4 and/or Kv7.3/7.5 ΔV1/2 equal to or lower than 15 mV (letter A in table 3))

Structure (SMILES): O=C(NCCC1(C(F)(F)F)CC1)NCc1ccnc(OCC2CC(F)(F)C2)c1 [Compound 15, 1-((2-((3,3-Difluorocyclobutyl)methoxy)pyridin-4-yl)methyl)-3-(2-(1-(trifluoromethyl)cyclopropyl)ethyl)urea]
- EC50 [1]: 2020 nM
- Kv7.2/7.3 ΔV1/2 [1]: 25.72 mV
- Kv7.4 selectivity criteria [2]: A (Selective compounds showed Kv7.4 and/or Kv7.3/7.5 ΔV1/2 equal to or lower than 15 mV (letter A in table 3))
- Kv7.3/7.5 selectivity criteria [3]: A (Selective compounds showed Kv7.4 and/or Kv7.3/7.5 ΔV1/2 equal to or lower than 15 mV (letter A in table 3))

Structure (SMILES): O=C(NCCC1(C(F)(F)F)CC1)NCc1ccnc(NCC(F)(F)F)c1 [Compound 16, 1-((2-((2,2,2-Trifluoroethyl)amino)pyridin-4-yl)methyl)-3-(2-(1-(trifluoromethyl)cyclopropyl)ethyl)urea]
- EC50 [1]: 6230 nM
- Kv7.2/7.3 ΔV1/2 [1]: 20.12 mV
- Kv7.4 selectivity criteria [2]: A (Selective compounds showed Kv7.4 and/or Kv7.3/7.5 ΔV1/2 equal to or lower than 15 mV (letter A in table 3))
- Kv7.3/7.5 selectivity criteria [3]: A (Selective compounds showed Kv7.4 and/or Kv7.3/7.5 ΔV1/2 equal to or lower than 15 mV (letter A in table 3))
